Results taken from patent US11779561B2, “Compounds and pharmaceutical uses thereof” (priority 2020, dated 2023).
Where “and” joins values, the source holds several entries; their conditions need not be identical. Identical values can stand only once.

Key:
SARS-CoV-2 3CLPro = SARS-CoV-2 3CLPro (Severe acute respiratory syndrome coronavirus 2, UniProt P0DTD1); assay: Native-PAGE binding with SARS-CoV-2 viral 3CLPro (Example 8); settings: 62.5-1000 μM samples mixed with 40 μM 3CLPro, 4° C., 3 hours
3CLPro = 3CLPro (Severe acute respiratory syndrome coronavirus 2, UniProt P0DTD1); settings: cited from earlier work; for IC50: read-out: IC50 (inhibition of 3CLPro), summary of Table 3
SARS-CoV-2 = SARS-CoV-2 virucidal assay in Vero E6 cells (qPCR of viral genome); type: cell-based; settings: Vero E6, MOI=0.01, 24 h
2019-nCoV 3CLPro = 2019-nCoV 3CLPro (Severe acute respiratory syndrome coronavirus 2, UniProt P0DTD1); assay: 2019-nCoV 3CLPro proteolytic activity, fluorogenic substrate, samples at 3 μM (Example 4); type: biochemical; settings: estimated from single concentration 3 μM; read-out: approximately half maximal inhibition (IC50) at the concentration

In the case of `O=C(O)c1cc(O)c(O)c(O)c1` [GA, gallic acid], the “binding to SARS-CoV-2 3CLPro by native-PAGE (mobility shift)” value (“binding … (mobility shift)” for short) (SARS-CoV-2 3CLPro) is reported as “no significant binding”.
In the case of `Cc1cccc(C)c1OCC(=O)N[C@@H](Cc1ccccc1)[C@@H](O)C[C@H](Cc1ccccc1)NC(=O)[C@H](C(C)C)N1CCCNC1=O` [Lopinavir], the “IC50 of the 3CLPro (result in words)” value (3CLPro; 20 μM, Ma et al., 2020) is given as 20 μM, failed to inhibit and the IC50 (3CLPro) is given as over 100 µM.
In the case of `Cc1c(O)cccc1C(=O)N[C@@H](CSc1ccccc1)[C@H](O)CN1C[C@H]2CCCC[C@H]2C[C@H]1C(=O)NC(C)(C)C` [Nelfinavir], the IC50 (3CLPro) is given as over 100 µM.
In the case of `CCC(CC)COC(=O)[C@H](C)N[P@](=O)(OC[C@H]1O[C@@](C#N)(c2ccc3c(N)ncnn23)[C@H](O)[C@@H]1O)Oc1ccccc1` [Remdesivir], the EC99 (SARS-CoV-2; cell layer) is reported as 15 µM and 15.000 µM and the EC99 (SARS-CoV-2; supernatant) is reported as 15 µM and 15.000 µM.
With `O=C(OC[C@H]1O[C@H](OC(=O)c2cc(O)c(O)c(O)c2)[C@H](OC(=O)c2cc(O)c(O)c(O)c2)[C@@H](OC(=O)c2cc(O)c(O)c(O)c2)[C@@H]1OC(=O)c1cc(O)c(O)c(O)c1)c1cc(O)c(O)c(O)c1` [Sample 1] the potency estimated from few doses (2019-nCoV 3CLPro) was about 3 µM.
In the case of `O=C(OC[C@H]1O[C@@H](OC(=O)c2cc(O)c(O)c(O)c2)[C@H](OC(=O)c2cc(O)c(O)c(O)c2)[C@@H](OC(=O)c2cc(O)c(O)c(O)c2)[C@@H]1OC(=O)c1cc(O)c(O)c(O)c1)c1cc(O)c(O)c(O)c1` [Sample 2, (2S,3R,4S,5R,6R)-3,4,5-tris(3,4,5-trihydroxybenzoyloxy)-6-((3,4,5-trihydroxybenzoyloxy)methyl)oxan-2-yl 3,4,5-trihydroxybenzoate], the potency estimated from few doses (2019-nCoV 3CLPro) is reported as about 3 µM.
In the case of `O=C(OC[C@H]1O[C@@H](OC(=O)c2cc(O)c(O)c(OC(=O)c3cc(O)c(O)c(O)c3)c2)[C@H](OC(=O)c2cc(O)c(O)c(OC(=O)c3cc(O)c(O)c(O)c3)c2)[C@@H](OC(=O)c2cc(O)c(O)c(OC(=O)c3cc(O)c(O)c(O)c3)c2)[C@@H]1OC(=O)c1cc(O)c(O)c(OC(=O)c2cc(O)c(O)c(O)c2)c1)c1cc(O)c(O)c(OC(=O)c2cc(O)c(O)c(O)c2)c1` [Sample 4, (2S,3R,4S,5R,6R)-3,4,5-tris(3,4-dihydroxy-5-(3,4,5-trihydroxybenzoyloxy)benzoyloxy)-6-((3,4-dihydroxy-5-(3,4,5-trihydroxybenzoyloxy)benzoyloxy)methyl)oxan-2-yl 3,4-dihydroxy-5-(3,4,5-trihydroxybenzoyloxy)benzoate], the “binding … (mobility shift)” value (SARS-CoV-2 3CLPro) is reported as “significant binding”.
For `O=C(OC[C@H]1O[C@@H](OC(=O)c2cc(O)c(O)c(OC(=O)c3cc(O)c(O)c(OC(=O)c4cc(O)c(O)c(O)c4)c3)c2)[C@H](OC(=O)c2cc(O)c(O)c(OC(=O)c3cc(O)c(O)c(OC(=O)c4cc(O)c(O)c(O)c4)c3)c2)[C@@H](OC(=O)c2cc(O)c(O)c(OC(=O)c3cc(O)c(O)c(OC(=O)c4cc(O)c(O)c(O)c4)c3)c2)[C@@H]1OC(=O)c1cc(O)c(O)c(OC(=O)c2cc(O)c(O)c(OC(=O)c3cc(O)c(O)c(O)c3)c2)c1)c1cc(O)c(O)c(OC(=O)c2cc(O)c(O)c(OC(=O)c3cc(O)c(O)c(O)c3)c2)c1` [Sample 6, (2S,3R,4S,5R,6R)-6-(((3-((3,4-dihydroxy-5-((3,4,5-trihydroxybenzoyl)oxy)benzoyl)oxy)-4,5-dihydroxybenzoyl)oxy)methyl)tetrahydro-2H-pyran-2,3,4,5-tetrayl tetrakis(3-((3,4-dihydroxy-5-((3,4,5-trihydroxybenzoyl)oxy)benzoyl)oxy)-4,5-dihydroxybenzoate)], the “binding … (mobility shift)” value (SARS-CoV-2 3CLPro) was “significant binding”.
In the case of `CC(C)(C)NC(=O)[C@@H]1C[C@@H]2CCCC[C@@H]2CN1C[C@@H](O)[C@H](Cc1ccccc1)NC(=O)[C@H](CC(N)=O)NC(=O)c1ccc2ccccc2n1` [Saquinavir], the IC50 (3CLPro) is listed as over 100 µM.
In the case of `CCC[C@@]1(CCc2ccccc2)CC(O)=C([C@H](CC)c2cccc(NS(=O)(=O)c3ccc(C(F)(F)F)cn3)c2)C(=O)O1` [Tipranavir], the IC50 (3CLPro) is listed as over 100 µM.
